Patent publication US20160143862A1, “METHOD OF USING BETA-IONONE TO TREAT AND PREVENT DISEASE INDUCED BY PROPIONIBACTERIUM ACNES” (NATIONAL TAIWAN NORMAL UNIVERSTITY, priority 2014, published 2016)

Tests used:
[1] = tested on: P. acnes-induced IL-8 production by THP-1 cells; experiment: inhibition of P. acnes-induced IL-8 production by THP-1 cells (enzyme immunoassay); format: cell-based, Human; conditions: 10, 20, 50 μM; P. acnes MOI 75; 24-h incubation; p<0.001
Description: Propionibacterium acnes (BCRC 10723, purchased from the Bioresource Collection and Research Center, Hsinchu, Taiwan) was cultured in a brain heart infusion (BHI) broth. The bacteria were cultured in an anaerobic atmosphere using BBL GasPak systems.

[2] = tested on: Propionibacterium acnes-induced ear swelling in ICR mice; experiment: P. acnes-induced mouse ear inflammation (ear thickness, biopsy weight, redness, neutrophil infiltration); format: in vivo
From the text: In the animal experiment of this embodiment, four-week-old male […] were purchased from the Experimental Animal Center of the National Taiwan University. After 1 week of adaptation, the mice were randomly divided into three groups of six animals each. The three groups of mice are, namely a blank control group of mice injected with a phosphate buffer solution (hereinafter referred to as “PBS-control”), an experimental group of mice injected with Propionibacterium acnes (hereinafter referred to as “P. acnes group”), and an experimental group of mice injected with Propionibacterium acnes and beta-ionone (hereinafter referred to as “P. acnes+beta-ionone group”). Mice were housed in plastic cages, under standard temperature-controlled conditions with a 12 h/12 h light-dark cycle and free access to food and water throughout the experiments. The experiments are each carried out by following the steps described below, so as to inject 10 µL of liquid (phosphate buffer solution (PBS), P. acnes, or P. acnes+beta-ionone) into the mice' ears, respectively. […] Mercy killing is carried out to all the mice 24 hours after the aforesaid injections, and then the ear's swelling induced by P. acnes was quantified as the percentage increases in the thickness and weight of the left ear biopsy. The thickness of the mice's ears is measured with a micrometer caliper. […]

[3] = tested on: human monocytic THP-1 cells; experiment: cytotoxicity of beta-ionone on THP-1 cells (cellular viability)
Description: Human monocytic THP-1 cells (BCRC 60430, purchased from the Bioresource Collection and Research Center, Hsinchu, Taiwan) were cultured in RPMI 1640 medium and supplemented with 10% of fetal bovine serum, 0.05 mM of 2-mercaptoethanol, and 100 units/mL of penicillin G sodium, 100 μg/mL of streptomycin sulfate, and 250 ng/mL of amphotericin B at 37° C. in a 5% CO2 humidified environment.
THP-1 cells are seeded at 2×10^5 cells/well in a 96-well plate with FBS-free RMPI 1640 medium, and are stimulated with Propionibacterium acnes (multiplicity of infection=75) alone or in combination with various concentrations of 10, 20, 50 μM of beta-ionone for a 24-h incubation.

CC(=O)/C=C/C1=C(C)CCCC1(C)C [beta-ionone, (3E)-4-(2,6,6-trimethylcyclohex-1-en-1-yl)but-3-en-2-one]
inhibitory effect on P. acnes-induced IL-8 production by THP-1 cells [1]: marked inhibitive effect
effect on redness, neutrophils infiltration and swelling (ear thickness and biopsy weight) caused by P. acnes ([2]; 50 μg/10 μL injected into ear with 6×10^7 CFU P. acnes, 24 hours, p<0.01, p<0.001): effective in reducing the redness, neutrophils infiltration, and swelling
redness and swelling of right ears (P. acnes + beta-ionone) versus left ears (P. acnes) ([2]; 50 μg/10 μL injected into ear, 24 hours after injection, FIG. 9): significantly abated redness and swelling
cytotoxic effect on human monocytic THP-1 cells ([3]; beta-ionone at 10, 20, 50 μM): does not have any cytotoxic effect
concentration with cytotoxic effect on THP-1 cells ([3]; cellular viability compared with untreated control, p<0.05, p<0.001): ≥ 100 µM
